SMILES strings stand for the structures.

In the test the target is T1, Cathepsin B (EC 3.4.22.1, from human liver) (Homo sapiens, UniProt P07858).
T1 construct: Cathepsin B (EC 3.4.22.1, from human liver) was purchased from Sigma Chemical Company; purchased Sigma Chemical Company (St. Louis, Mo.); host or cells: human liver
Nature of the test: High-throughput fluorometric cathepsin B assay (Z-F-R-AMC substrate). The test is classed as biochemical. The settings on record: cruzain versus cathepsin B IC50. As to the method: A fluorometric high throughput cathepsin B assay for detecting inhibitory activity was developed in 96-well microtiter plate format. Benzyloxy-Phe-Arg-AMC (Z-F-R-AMC; Molecular Probes, Inc., Eugene, Oreg.) was the substrate used in the assay (Km=150 μM). Cathepsin B (EC 3.4.22.1, from human liver) was purchased from Sigma Chemical Company (St. Louis, Mo.) in a stock solution containing 25 μg of the protein in 25 μl buffer (i.e., 20 mM sodium acetate, pH 5.0, and 1 mM EDTA).
The bioassay of the compounds was performed on a Sagian/Beckman Integrated robotic system (Beckman, Fullerton, Calif.). Inhibition of enzyme activity was measured via fluorescent detection. Fluorescence readings were taken at an excitation wavelength of […] (λmax=350 nm) and an emission wavelength of 430 nm (λmax=430 nm) on a BMG FluoStar (BMG, Durham, N.C.). […]
The reaction was initiated by the addition of the cathepsin B (0.46 ng/ml) in the assay buffer containing dithiothreitol (giving a final concentration of 1.5 mM). […] The activity was obtained by observing the end point absorbance reading after quenching. The percentage of inhibition was calculated by dividing the absorbance measured in the presence of inhibitor plus enzyme (inhibited signal) by the absorbance measured in the presence of enzyme alone (full signal) minus the absorbance obtained in the absence of both inhibitors and the enzyme (background). […]

For the molecule `O=C(Nc1ccc(CNC(=O)C(=O)c2ccc(-c3ccccc3)cc2)cc1)Nc1ccc(-c2ccccc2)cc1` [Compound 4], the “selectivity over cathepsin B” value is “greater than 20 fold”.

Source of the values: patent US6452050B1, “Synthesis and use of α-ketoamide derivatives and arrays” (ArQule, Inc., priority 1997, dated 2002).
